# In the supplement of paper PMC11208160:
# Test: recombinant barcode read abundance after kanamycin selection (control-corrected) (log10(CPM+1)); higher = more efficient recombination; sequences stand for … in AGTGCAGAGAAAATCGGCCAGTTTTCTCTGCCTGCAGTCCGCATGCCGT…AGATTTATGCAGCGGACTGCCTTTCTCCCAAAGTGATAAACCGGACAGTATCATGGACCGGTTTTCCCGGTAATCCGTATTTGCAAGGTTGGTTTCACT; site = the 11-nt target
# Procedure, shortened: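 Pooled E. coli screen pairing targets with IS621 bridge RNA target-binding loops. Each oligo (promoter, target, barcode, J23119-driven first 104 bridge RNA bases) was Gibson-cloned into a vector with the remaining 73 bp and T7-inducible recombinase, then co-electroporated with a donor plasmid. Two replicates each were plated on chloramphenicol/ampicillin LB agar (control) or chloramphenicol/ampicillin/kanamycin with 0.1 mM IPTG. Recombination efficiency is recombinant-junction barcode counts as CPM, averaged, control-corrected, reported as log10(CPM+1).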
# 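Further: IS621 recombinase and bridge RNA in Escherichia coli cells.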
row,Sequence,recombinant barcode read abundance (log10)
1,TATGGAGCTTGGGTTCTAACCTGTTGCTG (site AATGGGGCTCA),0.523
2,TATGGAGCTTGGGTTCTAACCTGTTGCTG (site TATGGAGCTCA),1.58
3,TATGGGACTTGGGTTCTAACCTGTTGCCT (site TATCGCACTAG),0.0772
4,TATGGGACTTGGGTTCTAACCTGTTGCCT (site TATGGGACTAG),1.25
5,TATGGTACTTGGGTTCTAACCTGTTGCGT (site GGGATACCTTA),0.0757
6,TATGGTACTTGGGTTCTAACCTGTTGCGT (site TATGGTACTAC),2.22
7,TATGGTTCTTGGGTTCTAACCTGTTGCCT (site TATGCTTCTAA),0.0349
8,TATGGTTCTTGGGTTCTAACCTGTTGCCT (site TATGGTTCTAG),0.502
9,TATTAGACTTGGGTTCTAACCTGTTGCCT (site AATTAGACTAG),0.158
10,TATTAGACTTGGGTTCTAACCTGTTGCCT (site CATTAGACTAG),0.13
11,TATTAGACTTGGGTTCTAACCTGTTGCCT (site GATTAGACTAG),0.209
12,TATTAGACTTGGGTTCTAACCTGTTGCCT (site TATTAGACTAG),0.225
13,TATTCTACTTGGGTTCTAACCTGTTGCGT (site TATTCTACTAC),0.0342
14,TATTCTACTTGGGTTCTAACCTGTTGCGT (site TATTCTACTCC),0.365
15,TATTCTACTTGGGTTCTAACCTGTTGCGT (site TATTCTACTGC),0.0341
16,TATTCTACTTGGGTTCTAACCTGTTGCGT (site TATTCTACTTC),0.0549
17,TATTGGACTTGGGTTCTAACCTGTTGCAC (site TATTGGACTAT),0.0463
18,TATTGGACTTGGGTTCTAACCTGTTGCAC (site TATTGGACTCT),0.122
19,TATTGGACTTGGGTTCTAACCTGTTGCAC (site TATTGGACTGT),0.0567
20,TATTGGACTTGGGTTCTAACCTGTTGCAC (site TATTGGACTTT),0.0673
21,TATTGGACTTGGGTTCTAACCTGTTGCAT (site TATTGGACTAT),0.421
22,TATTGGACTTGGGTTCTAACCTGTTGCAT (site TATTGGACTCT),0.153

row,Sequence,recombinant barcode read abundance (log10)
1,TATTGGACTTGGGTTCTAACCTGTTGCAT (site TATTGGACTGT),0.155
2,TATTGGACTTGGGTTCTAACCTGTTGCAT (site TATTGGACTTT),0.101
3,TATTGGACTTGGGTTCTAACCTGTTGCTT (site AATTGGACTAA),0.0764
4,TATTGGACTTGGGTTCTAACCTGTTGCTT (site CATTGGACTAA),0.0882
5,TATTGGACTTGGGTTCTAACCTGTTGCTT (site GATTGGACTAA),0.0435
6,TATTGGACTTGGGTTCTAACCTGTTGCTT (site TATTGGACTAA),0.141
7,TATTTGTCTTGGGTTCTAACCTGTTGCCA (site CACTTGTCTTG),0.023
8,TATTTGTCTTGGGTTCTAACCTGTTGCCA (site TATTTGTCTTG),0.156
9,TCAAGCCCTTGGGTTCTAACCTGTTGCAG (site CAGTCTACTAC),0.011
10,TCAAGCCCTTGGGTTCTAACCTGTTGCAG (site TCAAGCCCTCT),0.927
11,TCAAGGCCTTGGGTTCTAACCTGTTGCCT (site ACAAGGCCTAG),0.147
12,TCAAGGCCTTGGGTTCTAACCTGTTGCCT (site CCAAGGCCTAG),0.084
13,TCAAGGCCTTGGGTTCTAACCTGTTGCCT (site GCAAGGCCTAG),0.106
14,TCAAGGCCTTGGGTTCTAACCTGTTGCCT (site TCAAGGCCTAG),0.32
15,TCAATCCCTTGGGTTCTAACCTGTTGCCT (site TCAATCCCTAG),0.326
16,TCAATCCCTTGGGTTCTAACCTGTTGCCT (site TCCATCCCTAG),0.048
17,TCAATCCCTTGGGTTCTAACCTGTTGCCT (site TCGATCCCTAG),0.173
18,TCAATCCCTTGGGTTCTAACCTGTTGCCT (site TCTATCCCTAG),0.0124
19,TCACACACTTGGGTTCTAACCTGTTGCCT (site CTCAGACCTCA),0.0319
20,TCACACACTTGGGTTCTAACCTGTTGCCT (site TCACACACTAG),1.06
21,TCACCGCCTTGGGTTCTAACCTGTTGCCT (site ACACCGCCTAG),0.75
22,TCACCGCCTTGGGTTCTAACCTGTTGCCT (site CCACCGCCTAG),0.141

row,Sequence,recombinant barcode read abundance (log10)
1,TCACCGCCTTGGGTTCTAACCTGTTGCCT (site GCACCGCCTAG),0.0186
2,TCACCGCCTTGGGTTCTAACCTGTTGCCT (site TCACCGCCTAG),0.172
3,TCACCTGCTTGGGTTCTAACCTGTTGCCT (site TCACATGCTAG),0.0199
4,TCACCTGCTTGGGTTCTAACCTGTTGCCT (site TCACCTGCTAG),0.961
5,TCACCTGCTTGGGTTCTAACCTGTTGCCT (site TCACGTGCTAG),0.192
6,TCACCTGCTTGGGTTCTAACCTGTTGCCT (site TCACTTGCTAG),0.0607
7,TCACGTCCTTGGGTTCTAACCTGTTGCGG (site TCACGTCCTCC),1.3
8,TCACGTCCTTGGGTTCTAACCTGTTGCGG (site TTACGTCCTCC),0.0483
9,TCACGTGCTTGGGTTCTAACCTGTTGCCT (site TCACATGCTAG),0.0819
10,TCACGTGCTTGGGTTCTAACCTGTTGCCT (site TCACCTGCTAG),0.105
11,TCACGTGCTTGGGTTCTAACCTGTTGCCT (site TCACGTGCTAG),0.563
12,TCACGTGCTTGGGTTCTAACCTGTTGCCT (site TCACTTGCTAG),0.121
13,TCACTCTCTTGGGTTCTAACCTGTTGCCT (site TAACTCTCTAG),0.111
14,TCACTCTCTTGGGTTCTAACCTGTTGCCT (site TCACTCTCTAG),1.22
15,TCACTCTCTTGGGTTCTAACCTGTTGCCT (site TGACTCTCTAG),0.0273
16,TCACTCTCTTGGGTTCTAACCTGTTGCCT (site TTACTCTCTAG),0.062
17,TCACTTCCTTGGGTTCTAACCTGTTGCCT (site TCACCTTCTAG),0.121
18,TCACTTCCTTGGGTTCTAACCTGTTGCCT (site TCACTTCCTAG),0.0238
19,TCACTTGCTTGGGTTCTAACCTGTTGCCT (site TCACATGCTAG),0.0105
20,TCACTTGCTTGGGTTCTAACCTGTTGCCT (site TCACCTGCTAG),0.0436
21,TCACTTGCTTGGGTTCTAACCTGTTGCCT (site TCACGTGCTAG),0.177
22,TCACTTGCTTGGGTTCTAACCTGTTGCCT (site TCACTTGCTAG),0.215

row,Sequence,recombinant barcode read abundance (log10)
1,TCAGAAGCTTGGGTTCTAACCTGTTGCCG (site ATGAGGCCTTA),0.022
2,TCAGAAGCTTGGGTTCTAACCTGTTGCCG (site TCAGAAGCTCG),0.689
3,TCAGCCTCTTGGGTTCTAACCTGTTGCCT (site CTGTGTCCTCC),0.11
4,TCAGCCTCTTGGGTTCTAACCTGTTGCCT (site TCAGCCTCTAG),1.72
5,TCAGCGACTTGGGTTCTAACCTGTTGCCT (site TCAGCGACTAG),0.481
6,TCAGCGACTTGGGTTCTAACCTGTTGCCT (site TCCGCGACTAG),0.139
7,TCAGCGACTTGGGTTCTAACCTGTTGCCT (site TCGGCGACTAG),0.27
8,TCAGCGACTTGGGTTCTAACCTGTTGCCT (site TCTGCGACTAG),0.39
9,TCAGGAGCTTGGGTTCTAACCTGTTGCTA (site CATATGACTAG),0.288
10,TCAGGAGCTTGGGTTCTAACCTGTTGCTA (site TCAGGAGCTTA),0.325
11,TCATAGCCTTGGGTTCTAACCTGTTGCTG (site TCAAAGCCTCA),0.131
12,TCATAGCCTTGGGTTCTAACCTGTTGCTG (site TCACAGCCTCA),0.0283
13,TCATAGCCTTGGGTTCTAACCTGTTGCTG (site TCAGAGCCTCA),0.087
14,TCATAGCCTTGGGTTCTAACCTGTTGCTG (site TCATAGCCTCA),0.62
15,TCATATTCTTGGGTTCTAACCTGTTGCCT (site TCAAATTCTAG),0.17
16,TCATATTCTTGGGTTCTAACCTGTTGCCT (site TCACATTCTAG),0.0604
17,TCATATTCTTGGGTTCTAACCTGTTGCCT (site TCAGATTCTAG),0.069
18,TCATATTCTTGGGTTCTAACCTGTTGCCT (site TCATATTCTAG),0.0782
19,TCATGAACTTGGGTTCTAACCTGTTGCCT (site TCATGAACTAG),0.256
20,TCATGAACTTGGGTTCTAACCTGTTGCCT (site TTATGATCTAG),0.0186
